According to ChEMBL document CHEMBL5465560, “Selectivity Literature for EUbOPEN Chemogenomic Library” (2024):

Assays:
[1] = target: NT-3 growth factor receptor (Homo sapiens, UniProt Q16288); details: at 10 µM
[2] = system: Mast/stem cell growth factor receptor Kit (Homo sapiens), P10721 [V559D,T670I]; experiment: Selectivity interaction (KinomeScan (DiscoverX)) EUB0000229b KIT; details: at 1 µM
[3] = target: Activin receptor type-1-like (Homo sapiens) (UniProt P37023); experiment: Selectivity interaction (KinomeScan (DiscoverX)) EUB0000092b ACVRL1; details: at 10 µM
[4] = target: T1, Serine/threonine-protein kinase Nek5 (Homo sapiens) (UniProt Q6P3R8); experiment: Selectivity interaction (KinomeScan (DiscoverX)) EUB0000092b NEK5; details: at 10 µM
T1 sequence (whole entry): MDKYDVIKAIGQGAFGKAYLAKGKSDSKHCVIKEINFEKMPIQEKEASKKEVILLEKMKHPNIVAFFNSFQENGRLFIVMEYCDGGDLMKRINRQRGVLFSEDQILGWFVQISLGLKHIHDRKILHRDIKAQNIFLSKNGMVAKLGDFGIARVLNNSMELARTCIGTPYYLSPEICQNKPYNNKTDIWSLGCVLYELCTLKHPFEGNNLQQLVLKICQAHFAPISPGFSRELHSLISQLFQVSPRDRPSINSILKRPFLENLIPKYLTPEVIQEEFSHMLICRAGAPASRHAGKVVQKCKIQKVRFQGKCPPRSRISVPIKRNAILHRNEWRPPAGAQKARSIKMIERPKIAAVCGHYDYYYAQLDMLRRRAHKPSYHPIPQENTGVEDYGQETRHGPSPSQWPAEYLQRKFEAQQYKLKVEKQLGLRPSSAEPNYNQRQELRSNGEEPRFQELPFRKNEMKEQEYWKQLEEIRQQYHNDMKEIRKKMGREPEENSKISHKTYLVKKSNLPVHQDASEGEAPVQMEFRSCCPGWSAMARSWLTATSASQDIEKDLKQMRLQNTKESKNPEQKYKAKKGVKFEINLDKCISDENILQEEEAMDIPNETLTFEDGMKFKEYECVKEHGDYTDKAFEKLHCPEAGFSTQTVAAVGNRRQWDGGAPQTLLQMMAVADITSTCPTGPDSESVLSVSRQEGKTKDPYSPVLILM

[5] = target: T2, Mixed lineage kinase domain-like protein (Homo sapiens) (UniProt Q8NB16); experiment: Selectivity interaction (Kinase panel (KiNativ target engagement assay in Jurkat cells)) EUB0001635a MLKL; format: cell-based; details: at 1 µM
T2 sequence (whole entry): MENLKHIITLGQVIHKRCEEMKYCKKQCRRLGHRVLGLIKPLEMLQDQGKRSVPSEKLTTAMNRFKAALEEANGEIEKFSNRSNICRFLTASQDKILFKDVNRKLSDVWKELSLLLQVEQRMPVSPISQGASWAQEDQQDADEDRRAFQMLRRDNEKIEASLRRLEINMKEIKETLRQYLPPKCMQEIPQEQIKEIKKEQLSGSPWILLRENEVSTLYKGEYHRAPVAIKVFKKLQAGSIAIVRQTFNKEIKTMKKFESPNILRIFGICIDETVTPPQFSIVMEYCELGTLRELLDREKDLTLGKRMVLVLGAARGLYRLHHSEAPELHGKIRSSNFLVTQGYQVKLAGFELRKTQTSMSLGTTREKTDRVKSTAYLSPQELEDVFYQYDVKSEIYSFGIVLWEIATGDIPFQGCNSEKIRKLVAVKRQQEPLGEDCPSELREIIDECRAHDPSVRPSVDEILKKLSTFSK

[6] = target: Serine/threonine-protein kinase 26 (Homo sapiens, UniProt Q9P289); experiment: Selectivity interaction (Kinase panel (KiNativ target engagement assay in Jurkat cells)) EUB0001635a STK26; format: cell-based; details: Selectivity number of off-targets 0.0, Selectivity number of targets 233.0, Source Knowledge https://www.sciencedirect.com/science/article/pii/S2451945619300674?via%3Dihub, at 1 µM
[7] = target: SRSF protein kinase 2 (Homo sapiens) (UniProt P78362); experiment: Selectivity interaction (ActivX KiNativ screen (kinase selectivity in THP-1 cell lysates)) EUB0000639a SRPK2; format: subcellular; details: lysate
[8] = system: Tyrosine-protein kinase ABL1 (Homo sapiens), P00519 [T315I]; experiment: Selectivity interaction (KinomeScan (DiscoverX)) EUB0000607a ABL1; details: at 10 µM
[9] = target: Fibroblast growth factor receptor 4 (Homo sapiens, UniProt P22455); experiment: Selectivity interaction (KinomeScan (DiscoverX)) EUB0000607a FGFR4; details: at 10 µM
[10] = target: T3, Inhibitor of nuclear factor kappa-B kinase subunit beta (Homo sapiens) (UniProt O14920); experiment: Selectivity interaction (KinomeScan (DiscoverX)) EUB0001049a IKBKB; details: at 1 µM
T3 sequence (whole entry): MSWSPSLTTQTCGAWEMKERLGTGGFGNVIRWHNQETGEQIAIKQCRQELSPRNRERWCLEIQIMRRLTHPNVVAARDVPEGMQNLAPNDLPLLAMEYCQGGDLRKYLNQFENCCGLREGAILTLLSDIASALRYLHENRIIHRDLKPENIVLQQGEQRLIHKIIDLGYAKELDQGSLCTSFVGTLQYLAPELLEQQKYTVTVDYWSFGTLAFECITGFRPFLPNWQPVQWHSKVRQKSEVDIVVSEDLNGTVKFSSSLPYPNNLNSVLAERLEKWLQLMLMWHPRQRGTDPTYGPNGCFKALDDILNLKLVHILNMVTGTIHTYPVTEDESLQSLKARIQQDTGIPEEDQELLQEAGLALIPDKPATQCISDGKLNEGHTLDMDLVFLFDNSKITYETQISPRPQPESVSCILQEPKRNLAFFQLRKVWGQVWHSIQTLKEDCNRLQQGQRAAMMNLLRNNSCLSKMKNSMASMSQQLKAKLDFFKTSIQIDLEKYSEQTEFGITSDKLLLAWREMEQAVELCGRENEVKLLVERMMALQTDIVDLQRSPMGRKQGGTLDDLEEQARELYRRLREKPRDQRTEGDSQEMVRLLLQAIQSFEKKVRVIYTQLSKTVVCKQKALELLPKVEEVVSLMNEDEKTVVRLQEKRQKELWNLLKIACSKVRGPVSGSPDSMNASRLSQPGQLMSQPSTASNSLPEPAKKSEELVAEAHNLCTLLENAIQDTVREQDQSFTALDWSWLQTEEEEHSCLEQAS

[11] = target: Fibroblast growth factor receptor 2 (Homo sapiens) (UniProt P21802); experiment: Selectivity interaction (KinomeScan (DiscoverX)) EUB0000045b FGFR2
[12] = target: Mitogen-activated protein kinase 6 (Homo sapiens) (UniProt Q16659); experiment: Selectivity interaction (KinomeScan (DiscoverX)) EUB0000045b MAPK6
[13] = target: Mitogen-activated protein kinase 1 (Homo sapiens, UniProt P28482); experiment: Selectivity interaction (ActivX KiNativ screen (ex vivo kinase selectivity in human PBMCs)) EUB0001619a MAPK1; format: cell-based; details: PBMC, at 1 µM
Mitogen-activated protein kinase 1, sequence (P28482 whole entry): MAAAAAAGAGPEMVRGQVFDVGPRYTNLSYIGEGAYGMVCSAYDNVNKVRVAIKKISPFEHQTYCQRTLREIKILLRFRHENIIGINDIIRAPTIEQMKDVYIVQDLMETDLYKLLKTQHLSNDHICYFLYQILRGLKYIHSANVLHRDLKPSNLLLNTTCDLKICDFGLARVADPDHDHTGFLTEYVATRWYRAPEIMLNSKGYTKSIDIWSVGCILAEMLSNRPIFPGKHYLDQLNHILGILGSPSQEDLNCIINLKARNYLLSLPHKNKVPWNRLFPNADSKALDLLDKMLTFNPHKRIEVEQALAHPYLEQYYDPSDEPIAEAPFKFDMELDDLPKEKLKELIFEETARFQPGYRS

SRSF protein kinase 2 (Homo sapiens), sequence (P78362 whole entry, looked up): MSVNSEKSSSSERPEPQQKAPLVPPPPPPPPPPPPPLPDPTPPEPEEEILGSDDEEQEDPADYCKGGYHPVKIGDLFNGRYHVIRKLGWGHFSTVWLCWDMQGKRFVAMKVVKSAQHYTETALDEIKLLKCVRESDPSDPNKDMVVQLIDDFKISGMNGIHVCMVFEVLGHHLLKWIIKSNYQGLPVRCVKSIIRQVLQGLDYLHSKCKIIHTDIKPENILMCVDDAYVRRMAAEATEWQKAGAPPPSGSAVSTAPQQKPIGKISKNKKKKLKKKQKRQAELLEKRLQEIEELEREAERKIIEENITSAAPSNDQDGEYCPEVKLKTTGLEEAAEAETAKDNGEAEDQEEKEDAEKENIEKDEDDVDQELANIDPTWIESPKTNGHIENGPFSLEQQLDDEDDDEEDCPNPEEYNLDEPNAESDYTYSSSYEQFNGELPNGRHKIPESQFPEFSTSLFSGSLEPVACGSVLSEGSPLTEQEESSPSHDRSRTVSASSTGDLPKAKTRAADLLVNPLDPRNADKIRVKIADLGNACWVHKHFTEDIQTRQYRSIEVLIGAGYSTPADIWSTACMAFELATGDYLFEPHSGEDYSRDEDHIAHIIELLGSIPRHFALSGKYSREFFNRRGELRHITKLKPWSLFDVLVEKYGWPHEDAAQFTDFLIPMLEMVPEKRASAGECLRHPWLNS
Fibroblast growth factor receptor 2 (Homo sapiens), sequence (P21802 22-821 limits assumed): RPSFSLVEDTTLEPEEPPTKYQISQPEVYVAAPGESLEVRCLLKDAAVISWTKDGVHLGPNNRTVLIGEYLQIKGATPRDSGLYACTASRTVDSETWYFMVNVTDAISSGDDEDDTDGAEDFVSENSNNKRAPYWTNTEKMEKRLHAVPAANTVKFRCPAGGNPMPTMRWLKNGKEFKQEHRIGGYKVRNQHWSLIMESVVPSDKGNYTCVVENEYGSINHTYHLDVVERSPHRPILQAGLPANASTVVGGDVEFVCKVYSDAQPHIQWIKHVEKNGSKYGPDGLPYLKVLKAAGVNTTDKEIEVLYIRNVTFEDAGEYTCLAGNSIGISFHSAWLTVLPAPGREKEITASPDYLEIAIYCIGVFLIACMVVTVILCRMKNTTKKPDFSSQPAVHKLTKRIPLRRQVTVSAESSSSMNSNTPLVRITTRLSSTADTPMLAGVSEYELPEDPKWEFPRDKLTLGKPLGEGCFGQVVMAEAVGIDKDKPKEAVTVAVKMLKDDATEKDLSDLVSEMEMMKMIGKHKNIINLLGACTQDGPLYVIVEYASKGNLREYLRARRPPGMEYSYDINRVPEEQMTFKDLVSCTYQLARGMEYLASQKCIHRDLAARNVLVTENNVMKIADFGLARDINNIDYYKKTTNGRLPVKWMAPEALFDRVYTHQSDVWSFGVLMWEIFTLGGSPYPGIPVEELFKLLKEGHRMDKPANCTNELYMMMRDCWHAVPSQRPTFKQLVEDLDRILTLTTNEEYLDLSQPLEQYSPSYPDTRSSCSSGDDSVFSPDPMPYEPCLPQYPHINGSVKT
Mitogen-activated protein kinase 6 (Homo sapiens), sequence (Q16659 whole entry): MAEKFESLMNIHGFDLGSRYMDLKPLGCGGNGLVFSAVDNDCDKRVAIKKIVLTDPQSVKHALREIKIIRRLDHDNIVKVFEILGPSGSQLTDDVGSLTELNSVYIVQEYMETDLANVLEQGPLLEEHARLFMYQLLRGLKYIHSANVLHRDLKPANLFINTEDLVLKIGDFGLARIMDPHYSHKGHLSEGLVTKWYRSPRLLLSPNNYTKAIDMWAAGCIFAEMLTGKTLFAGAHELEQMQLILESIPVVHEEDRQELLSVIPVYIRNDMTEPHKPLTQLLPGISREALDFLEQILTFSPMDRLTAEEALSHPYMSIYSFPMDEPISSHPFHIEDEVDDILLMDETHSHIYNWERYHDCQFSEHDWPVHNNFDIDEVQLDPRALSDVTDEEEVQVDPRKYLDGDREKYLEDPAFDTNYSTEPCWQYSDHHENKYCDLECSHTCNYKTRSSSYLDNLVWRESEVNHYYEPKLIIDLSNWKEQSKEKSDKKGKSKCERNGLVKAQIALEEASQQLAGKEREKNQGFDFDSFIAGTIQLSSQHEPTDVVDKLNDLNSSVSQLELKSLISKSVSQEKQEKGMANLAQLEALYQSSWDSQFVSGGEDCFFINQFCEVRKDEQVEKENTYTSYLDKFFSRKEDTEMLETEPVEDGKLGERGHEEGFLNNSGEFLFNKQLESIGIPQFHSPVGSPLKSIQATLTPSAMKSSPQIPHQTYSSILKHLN
Mast/stem cell growth factor receptor Kit (Homo sapiens), P10721 [V559D,T670I], sequence (P10721 whole entry V559D/T670I): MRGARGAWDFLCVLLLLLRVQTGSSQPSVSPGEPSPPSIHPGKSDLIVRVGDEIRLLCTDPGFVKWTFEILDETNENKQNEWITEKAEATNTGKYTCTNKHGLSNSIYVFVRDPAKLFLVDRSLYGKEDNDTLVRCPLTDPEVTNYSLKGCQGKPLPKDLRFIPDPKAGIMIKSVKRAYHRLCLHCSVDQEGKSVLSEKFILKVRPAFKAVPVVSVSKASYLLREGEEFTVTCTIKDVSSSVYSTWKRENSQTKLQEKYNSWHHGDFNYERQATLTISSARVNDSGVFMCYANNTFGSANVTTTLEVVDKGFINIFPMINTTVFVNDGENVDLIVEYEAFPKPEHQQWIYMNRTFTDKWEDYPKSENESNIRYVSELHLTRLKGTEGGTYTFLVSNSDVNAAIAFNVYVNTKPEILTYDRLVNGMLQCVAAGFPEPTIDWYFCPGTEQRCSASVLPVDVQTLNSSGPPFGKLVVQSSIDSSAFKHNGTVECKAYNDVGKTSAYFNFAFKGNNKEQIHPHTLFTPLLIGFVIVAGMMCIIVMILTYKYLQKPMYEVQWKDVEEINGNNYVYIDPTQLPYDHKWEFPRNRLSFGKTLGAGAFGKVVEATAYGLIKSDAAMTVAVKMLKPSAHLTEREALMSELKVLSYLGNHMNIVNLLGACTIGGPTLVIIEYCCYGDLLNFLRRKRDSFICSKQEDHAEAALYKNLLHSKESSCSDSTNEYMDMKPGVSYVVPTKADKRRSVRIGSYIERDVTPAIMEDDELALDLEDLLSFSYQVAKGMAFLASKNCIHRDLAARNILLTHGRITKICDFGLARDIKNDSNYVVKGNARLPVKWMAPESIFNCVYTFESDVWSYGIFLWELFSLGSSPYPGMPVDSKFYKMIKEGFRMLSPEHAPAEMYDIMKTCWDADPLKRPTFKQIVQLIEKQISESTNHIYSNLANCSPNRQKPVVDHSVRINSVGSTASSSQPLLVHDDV
NT-3 growth factor receptor, sequence (Q16288 32-839 limits assumed): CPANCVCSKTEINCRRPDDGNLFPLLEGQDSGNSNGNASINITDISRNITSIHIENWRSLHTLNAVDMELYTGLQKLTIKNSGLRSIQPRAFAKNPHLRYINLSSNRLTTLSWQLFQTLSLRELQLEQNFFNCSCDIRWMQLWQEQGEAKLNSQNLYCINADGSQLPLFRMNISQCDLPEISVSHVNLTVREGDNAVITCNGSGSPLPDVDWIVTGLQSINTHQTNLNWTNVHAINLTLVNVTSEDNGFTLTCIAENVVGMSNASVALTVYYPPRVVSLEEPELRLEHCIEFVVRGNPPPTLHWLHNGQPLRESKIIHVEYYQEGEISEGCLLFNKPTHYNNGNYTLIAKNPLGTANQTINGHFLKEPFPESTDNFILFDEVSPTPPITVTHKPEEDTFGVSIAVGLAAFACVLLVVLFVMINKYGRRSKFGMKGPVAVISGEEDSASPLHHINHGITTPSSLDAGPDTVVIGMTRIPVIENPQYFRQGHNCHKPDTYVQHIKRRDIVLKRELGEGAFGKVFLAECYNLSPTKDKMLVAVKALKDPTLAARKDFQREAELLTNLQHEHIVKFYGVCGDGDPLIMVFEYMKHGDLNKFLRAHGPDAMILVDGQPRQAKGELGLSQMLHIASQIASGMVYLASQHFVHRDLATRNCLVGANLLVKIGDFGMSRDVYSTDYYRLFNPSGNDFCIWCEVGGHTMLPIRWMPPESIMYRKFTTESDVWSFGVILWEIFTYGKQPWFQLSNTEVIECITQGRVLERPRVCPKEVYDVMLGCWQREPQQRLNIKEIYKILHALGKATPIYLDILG
Activin receptor type-1-like (Homo sapiens), sequence (P37023 whole entry): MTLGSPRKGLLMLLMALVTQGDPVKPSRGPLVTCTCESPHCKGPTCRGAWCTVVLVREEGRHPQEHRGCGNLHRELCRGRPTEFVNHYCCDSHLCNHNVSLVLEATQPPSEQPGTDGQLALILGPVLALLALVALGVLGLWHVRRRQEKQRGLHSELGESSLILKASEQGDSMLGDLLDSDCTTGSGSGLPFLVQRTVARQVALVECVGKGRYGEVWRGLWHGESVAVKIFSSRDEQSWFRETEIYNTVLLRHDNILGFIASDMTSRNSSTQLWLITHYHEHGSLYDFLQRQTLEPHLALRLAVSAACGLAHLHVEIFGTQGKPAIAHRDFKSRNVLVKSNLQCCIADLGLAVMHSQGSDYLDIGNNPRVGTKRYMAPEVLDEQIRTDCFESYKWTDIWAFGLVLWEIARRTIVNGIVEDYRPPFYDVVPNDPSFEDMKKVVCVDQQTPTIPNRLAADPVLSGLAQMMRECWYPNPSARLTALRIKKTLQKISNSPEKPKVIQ

Compound: CCN(CC)CCCCNc1ncc2cc(-c3cc(OC)cc(OC)c3)c(NC(=O)NC(C)(C)C)nc2n1
- % of control [1]: 100%

Compound: COc1cc(N(C)c2ccnc3ccc(C(F)(F)F)cc23)cc(OC)c1OC
- % binding [2]: 94%

Compound: CCC(=O)N1CCN(c2ccc(-n3c(=O)ccc4cnc5ccc(-c6cnc7ccccc7c6)cc5c43)cc2C(F)(F)F)CC1
- % of control [3]: 83%
- % of control [4]: 5.8%

Compound: C=CC(=O)Nc1ccc(C(=O)Nc2[nH]nc3c2CN(C(=O)N[C@H](CN(C)C)c2ccccc2)C3(C)C)cc1
- % of engagement [5]: 5.6%
- % of engagement [6]: -26.3%

Compound: CC[C@@H]1[C@H](F)C(=O)N[C@@H]1COc1nccc2cc(C(N)=O)c(OC)cc12 [ZIMLOVISERTIB]
- % of inhibition ([7]; at 0.01 µM): 6.9%
- % of inhibition ([7]; at 0.04 µM): -23%
- % of inhibition ([7]; at 0.2 µM): -5.5%
- % of inhibition ([7]; at 1 µM): 11.7%
- % of inhibition ([7]; at 5 µM): 19.9%

Compound: CNC(=O)Nc1ccc(-c2nc(N3CC4CCC(C3)O4)c3cnn(C4CCC5(CC4)OCCO5)c3n2)cc1
- % of control [8]: 80%
- % of control [9]: 62%

Compound: COc1cc(Nc2nc(C)cc(-c3cnn4nc(OC)ccc34)n2)cc(C(F)(F)F)c1
- % of control [10]: 81%

Compound: C=CC(=O)Nc1cc(-n2c(=O)ccc3cnc4ccc(-c5ccc(NS(C)(=O)=O)cc5)cc4c32)ccc1C
- % of control ([11]; at 1 µM): 96%
- % of control ([11]; at 10 µM): 92%
- % of control ([12]; at 1 µM): 82%
- % of control ([12]; at 10 µM): 100%

Compound: N#Cc1cccc(-c2c[nH]c3ncnc(N4CCOCC4)c23)c1
- % of inhibition [13]: 3%
